Positions count from the first letter of the chain named.

One experiment addresses T1, hURAT1 F364Y-F365Y (Homo sapiens, UniProt Q96S37, F364Y/F365Y).
T1 construct: Flag; expressed in transfected cells; host or cells: HEK293
T1 sequence (Q96S37 1-553 F364Y/F365Y): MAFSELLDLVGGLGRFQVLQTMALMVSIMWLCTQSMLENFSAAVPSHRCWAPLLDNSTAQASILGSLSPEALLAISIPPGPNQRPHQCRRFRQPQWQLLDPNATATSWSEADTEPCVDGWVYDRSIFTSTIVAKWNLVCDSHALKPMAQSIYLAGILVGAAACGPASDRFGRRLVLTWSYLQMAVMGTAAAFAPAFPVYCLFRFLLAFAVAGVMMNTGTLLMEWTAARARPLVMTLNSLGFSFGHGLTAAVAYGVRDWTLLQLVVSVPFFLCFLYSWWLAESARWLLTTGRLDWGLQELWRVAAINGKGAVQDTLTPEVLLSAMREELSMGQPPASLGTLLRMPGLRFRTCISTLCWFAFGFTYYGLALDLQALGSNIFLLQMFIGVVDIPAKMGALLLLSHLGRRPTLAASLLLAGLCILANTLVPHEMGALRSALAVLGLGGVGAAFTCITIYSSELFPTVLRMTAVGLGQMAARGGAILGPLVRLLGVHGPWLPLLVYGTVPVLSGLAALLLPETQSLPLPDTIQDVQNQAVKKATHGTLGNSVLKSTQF
Briefly: 14C-urate uptake inhibition assay, hURAT1 F364Y-F365Y mutant in HEK293 cells. Type of experiment: cell-based. Particulars: for IC50: F364Y-F365Y hURAT1, HEK293 cells, 14C-urate uptake, n=3-8, N.A., not active, read-out: pIC50 (Mean ± SEM) (converted). Here is the method:
(§1) The cells were seeded at a density of 30,000 cells per well in Isoplate-96 plates (Perkin Elmer).

A further experiment addresses T2, hURAT1 R477K (Homo sapiens, UniProt Q96S37, R477K).
T2 construct: Flag; expressed in transfected cells; host or cells: HEK293
T2 sequence (Q96S37 1-553 R477K): T1 sequence (Q96S37 1-553 F364Y/F365Y) with Y364F, Y365F, R477K
Put plainly: 14C-urate uptake inhibition assay, hURAT1 R477K mutant in HEK293 cells. Particulars: for IC50: R477K hURAT1, HEK293 cells, 14C-urate uptake, n=3-8, read-out: pIC50 (Mean ± SEM) (converted). The experiment is classed as cell-based. Here is the method:
as §1

A further experiment concerns the target T3, hURAT1 F360A (Homo sapiens, UniProt Q96S37, F360A).
T3 construct: Flag; expressed in transfected cells; host or cells: HEK293
T3 sequence (Q96S37 1-553 F360A): T1 sequence (Q96S37 1-553 F364Y/F365Y) with F360A, Y364F, Y365F
Briefly: 14C-urate uptake inhibition assay, hURAT1 F360A mutant in HEK293 cells. Type of experiment: cell-based. Particulars: for IC50: F360A hURAT1, HEK293 cells, 14C-urate uptake, n=3-8, read-out: pIC50 (Mean ± SEM) (converted); for effect of alanine substitution at F360 on inhibition: F360A vs wild-type URAT1, in words. On the procedure:
as §1

For the next experiment, the target named is T4, hURAT1 F449A (Homo sapiens, UniProt Q96S37, F449A).
T4 construct: Flag; expressed in transfected cells; host or cells: HEK293
T4 sequence (Q96S37 1-553 F449A): T1 sequence (Q96S37 1-553 F364Y/F365Y) with Y364F, Y365F, F449A
Briefly: 14C-urate uptake inhibition assay, hURAT1 F449A mutant in HEK293 cells. The experiment is classed as cell-based. Here is the method:
as §1

Details of experiment [1]: method as in PMID 26378978, PMID 30415602. Particulars: high-risk patients; cited from earlier work.

With `O=C(O)CSc1nnc(Br)n1-c1ccc(C2CC2)c2ccccc12` [lesinurad], at hURAT1 F364Y-F365Y (F364Y-F365Y vs wild-type URAT1, in words), the “effect of changing F364 and F365 to tyrosine on inhibition” value is “nearly abolishes the inhibitory effects”.

With `O=C(c1cc(Cl)c(O)c(Cl)c1)N1CS(=O)(=O)c2ccccc21` [dotinurad], the IC50 at hURAT1 F364Y-F365Y was 123 nM; on hURAT1 R477K, 22.9 nM; on hURAT1 F360A, 3160 nM. The “effect of alanine substitution at F360 on inhibition” value on hURAT1 F360A is recorded as “markedly reduces the effectiveness”.

On to `CCc1oc2ccccc2c1C(=O)c1cc(Br)c(O)c(Br)c1` [benzbromarone], for which the “effect of alanine substitution at F449 on inhibition” value at hURAT1 F449A (F449A vs wild-type URAT1, in words) is “significantly diminish the inhibitory effectiveness”. For the same compound, the “effect of mutation of R477 to lysine on potency” value on hURAT1 R477K (R477K vs wild-type URAT1, in words) is “slightly reduced the potency”. For the same compound, at hURAT1 F360A, the “effect of alanine substitution at F360 on inhibition” value is recorded as “significantly diminish the inhibitory effectiveness”.

Take `OC[C@H]1O[C@@H](c2ccc(Cl)c(Cc3ccc(O[C@H]4CCOC4)cc3)c2)[C@H](O)[C@@H](O)[C@@H]1O` [empagliflozin]: in experiment [1], the “relative risk reduction in cardiovascular death” value is given as 38%.

As for `CC(C)(Sc1ccncc1-c1ccc(C#N)c2ccccc12)C(=O)O` [verinurad], the IC50 at hURAT1 F364Y-F365Y was 245000 nM; at hURAT1 F449A (F449A hURAT1, HEK293 cells, 14C-urate uptake, n=3-8, read-out: pIC50 (Mean ± SEM) (converted)) it was 126 nM; at hURAT1 R477K, 513 nM; at hURAT1 F360A it was 56.2 nM.

(Values after article PMC11962085, “Molecular mechanisms of urate transport by the native human URAT1 and its inhibition by anti-gout drugs” (Cell Discovery, 2025).)
